Data on six compounds can be found in PubChem BioAssay AID540340 (Sanford-Burnham Center for Chemical Genomics, 2011).

The structures appear in SMILES notation.

Sequence of C-C chemokine receptor type 6 (Homo sapiens) (P51684 whole entry, looked up): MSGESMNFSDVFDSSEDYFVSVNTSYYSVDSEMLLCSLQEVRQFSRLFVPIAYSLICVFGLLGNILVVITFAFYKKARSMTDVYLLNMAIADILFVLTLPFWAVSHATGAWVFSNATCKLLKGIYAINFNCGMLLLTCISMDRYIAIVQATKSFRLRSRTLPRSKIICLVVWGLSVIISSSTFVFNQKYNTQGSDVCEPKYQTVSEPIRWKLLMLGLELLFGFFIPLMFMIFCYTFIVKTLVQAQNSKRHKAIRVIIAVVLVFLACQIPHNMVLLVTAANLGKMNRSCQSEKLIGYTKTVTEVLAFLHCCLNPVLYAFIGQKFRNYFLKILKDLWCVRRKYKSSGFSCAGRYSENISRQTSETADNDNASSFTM

This test concerns the target C-C chemokine receptor type 6 (Homo sapiens) (UniProt P51684). Briefly: inhibition of CXCL13-driven CXCR5 beta-arrestin recruitment – cell-based, luminescence, CHO-K1 PathHunter, selectivity assay for CCR6 antagonist project, SAR follow-up (AID 540340). The settings on record: CCR6 beta-arrestin antagonism, AID540334. (Activated receptors often draw arrestin, which recruitment assays turn into a signal.)
Usually IC50 stands for the concentration at which inhibition is half-maximal. A high value points to weaker potency in that assay. `CCCCCCCCCCCCC/C=C/[C@@H](O)[C@@H](N)CO` registered an IC50 of 20.9 µM.
The value for `Cc1cccc2c1N(CCCOc1ccc(C(C)(C)C)cc1)C(=O)C2=O` was greater than 66.6 µM; that for `Cn1c(O)c(C2=NNC(c3ccc(Cl)cc3)C2)c(=O)n(C)c1=O` (stereo unspecified) was 5.84 µM; that for `CN1CCc2nc(SCc3ccc(Cl)cc3)c(C#N)c(-c3cccs3)c2C1` was greater than 66.6 µM.
The value for `C/C=C(\C)C(=O)OC1[C@H](OC(C)=O)C2(CO)C(CC1(C)C)C1=CCC3C4(C)CCC(O[C@@H]5O[C@H](C(=O)O)[C@@H](O[C@@H]6O[C@H](CO)[C@@H](O)[C@H](O)[C@H]6O)[C@H](O)[C@H]5O[C@H]5O[C@H](CO)[C@@H](O)[C@H](O)[C@H]5O)[C@](C)(CO)C4CCC3(C)[C@]1(C)C[C@H]2O` (stereo partly specified) was 7.82 µM; that for `O=C1C2C3C=CC(CO)(O3)C2C(=O)N1c1ccccc1-c1ccccc1` (stereo unspecified) was greater than 66.6 µM.
